Source: article PMC3179866, “Antiproliferative Activity of Xanthones Isolated from Artocarpus obtusus” (Journal of Biomedicine and Biotechnology, 2011)
In brackets after ≈: the same amount, converted by molar mass. Where two headings read alike, the source gives them in different places.

What was measured:
[1] = test system: HL60 (human promyelocytic leukemia) cells; assay: MTT cytotoxicity assay, HL60; type: cell-based; conditions: HL-60, 72 h, 72 hours continuous exposure
Excerpt: (§1) The cancerous and noncancerous cell lines (suspension and anchorage-dependent cells) were obtained from the American Type Culture Collection (ATCC) and the RIKEN Cell Bank (RCB). The cancerous cell lines used were HL-60 (human acute promyelocytic leukemia) (RCB), K562 (human chronic myeloid leukemia) (ATCC), MCF7 (human estrogen receptor (ER+) positive breast cancer) (ATCC), HeLa (human cervical cancer) (ATCC), HepG2 (human hepatocarcinoma) (ATCC), HT29 (human colon cancer) (RCI), and MDA-MB 231 (human estrogen receptor (ER−) negative) (ATCC). The noncancerous cell line and normal cells were 3T3 (Mouse embryo fibroblast) (ATCC), MCF10A (human nontumorigenic breast cell line) (ATCC) and PBMC (human peripheral blood mononuclear cells). PBMCs were obtained from one of the authors herself. Blood (10–12 mL) was taken from the donor by using the 25 mL syringe. The blood sample was diluted with same volume of PBS. The diluted blood sample was carefully layered on Ficoll-Paque Plus (Amersham Biosciences, USA) the ratio of 2 : 1. The mixture was centrifuged at 1500× g for 40 minutes at 18–20°C. The undisturbed lymphocyte layer was carefully transferred into centrifuge tube. […]
(§2) The colorimetric assay was performed on the isolated compounds using a modified microculture tetrazolium salt (MTT) assay (Sigma, USA). […] After incubation, the fractions of surviving cells were determined relative to the untreated cell population using the colorimetric MTT assay. In this method, the viabilities of the cells were determined by measuring the amount of blue formazan crystals formed after 20 mL of freshly prepared MTT solution (5 mg in 1 mL PBS) was added to each well followed by four hours of incubation at 37°C. […] Finally, the absorbance (OD) of each well at 570 nm of wavelength was read using the microplate reader (ELISA reader, EL340 Biokinetic Reader, Bio-Tek Instrumentation). […] The percentage of cell viability was determined as follows: […]

[2] = test system: K562 (human chronic myeloid leukemia) cells; assay: MTT cytotoxicity assay, K562; type: cell-based; conditions: K562, 72 h, 72 hours continuous exposure
Excerpt: (§3) The cancerous and noncancerous cell lines (suspension and anchorage-dependent cells) were obtained from the American Type Culture Collection (ATCC) and the RIKEN Cell Bank (RCB). The cancerous cell lines used were HL-60 (human acute promyelocytic leukemia) (RCB), K562 (human chronic myeloid leukemia) (ATCC), MCF7 (human estrogen receptor (ER+) positive breast cancer) (ATCC), HeLa (human cervical cancer) (ATCC), HepG2 (human hepatocarcinoma) (ATCC), HT29 (human colon cancer) (RCI), and MDA-MB 231 (human estrogen receptor (ER−) negative) (ATCC). […]
as §2

[3] = test system: MCF7 (human estrogen receptor (ER+) positive breast cancer) cells; assay: MTT cytotoxicity assay, MCF7; type: cell-based; conditions: 72 hours continuous exposure
Excerpt: The cancerous and noncancerous cell lines (suspension and anchorage-dependent cells) were obtained from the American Type Culture Collection (ATCC) and the RIKEN Cell Bank (RCB). The cancerous cell lines used were HL-60 (human acute promyelocytic leukemia) (RCB), K562 (human chronic myeloid leukemia) (ATCC), MCF7 (human estrogen receptor (ER+) positive breast cancer) (ATCC), HeLa (human cervical cancer) (ATCC), HepG2 (human hepatocarcinoma) (ATCC), HT29 (human colon cancer) (RCI), and MDA-MB 231 (human estrogen receptor (ER−) negative) (ATCC). The noncancerous cell line and normal cells were 3T3 (Mouse embryo fibroblast) (ATCC), MCF10A (human nontumorigenic breast cell line) (ATCC) and PBMC (human peripheral blood mononuclear cells). PBMCs were obtained from one of the authors herself. Blood (10–12 mL) was taken from the donor by using the 25 mL syringe. The blood sample was diluted with same volume of PBS. The diluted blood sample was carefully layered on Ficoll-Paque Plus (Amersham Biosciences, USA) the ratio of 2 : 1. The mixture was centrifuged at 1500× g for 40 minutes at 18–20°C. The undisturbed lymphocyte layer was carefully transferred into centrifuge tube. The lymphocyte was washed and spun down three times by adding 10 mL sterile PBS and to get the pellet and resuspended in RPMI 1640 (Sigma, USA) with 100 IU/mL of penicillin, 100 μg/mL of streptomycin (Flowlab, Australia), and 10% v/v Fetal Bovine Serum (FBS) (PAA, Austria). Cell counting was performed to determine the PBMC number in equal volume of trypan blue.
as §2, with “USA). Varying concentrations of 0.46, 0.93, 1.87, 3.75, 7.5, 15, and 30 μg/mL of pyranocycloartobiloxanthone A (1), dihydroartoindonesianin C (2), and pyranocycloartobiloxanthone B (3) were prepared from the substock solutions by serial dilution in RPMI 1640 to give a volume of 100 μL in each microtitre plate well (96-flat bottom microwell plates). Each well was then added with 100 μL of cell lines in complete growth media (RPMI 1640) 5 × 10^5 cells/mL.” for “USA).”

[4] = test system: HeLa (human cervical cancer) cells; assay: MTT cytotoxicity assay, HeLa; type: cell-based; conditions: 72 hours continuous exposure
Excerpt: as §3, §2

[5] = test system: MDA-MB 231 (human estrogen receptor (ER-) negative) cells; assay: MTT cytotoxicity assay, MDA-MB 231; type: cell-based; conditions: MDA-MB 231, MTT, 72 hours continuous exposure
Excerpt: as §3, §2

[6] = test system: HT29 (human colon cancer) cells; assay: MTT cytotoxicity assay, HT29; type: cell-based; conditions: HT-29, 72 hours continuous exposure
Excerpt: as §3, §2

[7] = test system: HepG2 (human hepatocarcinoma) cells; assay: MTT cytotoxicity assay, HepG2; type: cell-based; conditions: 72 hours continuous exposure
Excerpt: as §3, §2

[8] = test system: 3T3 (mouse embryo fibroblast) cells; assay: MTT cytotoxicity assay, 3T3; type: cell-based; conditions: 3T3, MTT, 72 hours continuous exposure
Excerpt: as §3, §2

[9] = test system: MCF10A (human nontumorigenic breast cell line); assay: MTT cytotoxicity assay, MCF10A; type: cell-based; conditions: MCF10A (normal), 72 hours continuous exposure
Excerpt: as §3, §2

[10] = test system: PBMC (human peripheral blood mononuclear cells); assay: MTT cytotoxicity assay, PBMC; type: cell-based; conditions: PBMC (normal), 72 hours continuous exposure
Excerpt: as §1, §2

HL60 cells [11] = assay: Cell proliferation ELISA BrdU assay, HL60; type: cell-based, human; conditions: HL60, treated at IC50 concentration (2 μg/mL)
Protocol: (§4) This assay was conducted to determine the antiproliferative effects of the tested compound. In this assay, three different concentrations of compound or test sample were prepared together with control. The concentration chosen were 1 μg/mL, the IC50 concentration, and 20 μg/mL. Two types of cells were selected: HL-60 (suspension) and MCF7 (adherent) cells, since they gave the most significant results for the cytotoxic activity. The procedures are according to the instruction manual from Roche. Each sample was assayed in triplicate, and control samples include a blank (no cells) and background (without BrdU). The cells were treated by pyranocycloartobiloxanthone A (1) for 24, 48, and 72 hours. The cells were cultured together with various dilutions of test substance (tested compound) in 96-well MP flat bottom in a final volume of 100 μL/well, and 10 μL BrdU label (diluted by 1/2000 in media) was added to each well and incubated for 24 hour at 37°C. BrdU label was then replaced with 200 μL of fix/denaturing solution for 30 min at room temperature (25°C) and removed by inverting the plate. The anti-BrdU-POD working solution (100 μL/well) (diluted by 1/100 in dilution buffer) was added and incubated for one hour at room temperature. The cells were washed three times with wash buffer and once with dH2O. Then, removed dH2O and 100 μL of substrate solution was added to each well and incubated for 15 min at room temperature in the dark. The stop solution (100 μL/well) was added, and the absorbance was measured using ELISA reader at 450 nm, (reference wavelength 690). The activity was observed by the optical density (OD) of the absorbance at 450 nm, and graphs were plotted from the optical density obtained against time of exposure for each cell lines.

MCF7 cells [12] = assay: Cell proliferation ELISA BrdU assay, MCF7; type: cell-based, human; conditions: MCF7, treated at IC50 concentration (5 μg/mL)
Protocol: as §4

HL60 cells [13] = assay: Acridine orange / propidium iodide staining, HL60; type: cell-based, human; conditions: HL60, 2 μg/mL (IC50), 72 hours
Protocol: (§5) Cell suspensions were mixed with an equal volume of staining solution (1 : 1) containing 10 μg/mL acridine orange and 10 μg/mL propium iodide (dissolved in PBS) and observed under fluorescence microscope within 30 minutes. The viable (green intact cells), apoptotic (green shrinking cells with condensed of fragmented nucleus), and necrotic (red cells) were the morphological changes that were examined under fluorescence microscope.

MCF7 cells [14] = assay: Acridine orange / propidium iodide staining, MCF7; type: cell-based, human; conditions: MCF7, 5 μg/mL (IC50), 72 hours
Protocol: as §5

C=C(C)c1cc2c(=O)c3c(O)cc4c(c3oc2c2c1C(C)(O)CC2=O)C=CC(C)(C)O4 (stereo not drawn) [compound 2, dihydroartoindonesianin C]
IC50 [1]: 26 ± 0.8 µg/mL (≈ 62.1 µM)
IC50 [2]: > 30 µg/mL
IC50 [3]: 27 ± 1.9 µg/mL (≈ 64.5 µM)

CC1Oc2c(O)cc(O)c3c2C(Cc2c-3oc3c4c(cc(O)c3c2=O)OC(C)(C)C=C4)C1O (stereo not drawn) [compound 3, pyranocycloartobiloxanthone B]
IC50 [1]: 17 ± 0.8 µg/mL (≈ 37.7 µM)
IC50 [2]: > 30 µg/mL
IC50 [3]: 23 ± 1.3 µg/mL (≈ 51.1 µM)

CC1C(O)Oc2c(O)cc(O)c3c2C1Cc1c-3oc2c3c(cc(O)c2c1=O)OC(C)(C)C=C3 (stereo not drawn) [compound 1, pyranocycloartobiloxanthone A]
IC50 [3]: 5 ± 1.2 µg/mL (≈ 11.1 µM)
IC50 [4]: 8 ± 3.3 µg/mL (≈ 17.8 µM)
IC50 [5]: 12 ± 1.1 µg/mL (≈ 26.6 µM)
IC50 [6]: 14 ± 1.5 µg/mL (≈ 31.1 µM)
IC50 [7]: 20 ± 2 µg/mL (≈ 44.4 µM)
IC50 [8]: 7 ± 1.6 µg/mL (≈ 15.5 µM)
IC50 ([9]; Homo sapiens, MCF-10A, read-out: IC50): > 30 µg/mL
IC50 [9]: not toxic
IC50 ([10]; Homo sapiens, read-out: IC50): > 30 µg/mL
IC50 [10]: not toxic
OD value (BrdU ELISA, 450 nm) (HL60 cells [11]; 24 hours, untreated 1.34): 0.8
OD value (BrdU ELISA, 450 nm) (HL60 cells [11]; 48 hours, untreated 1.26): 0.78
OD value (BrdU ELISA, 450 nm) (HL60 cells [11]; 72 hours, untreated 1.65): 0.66
OD value (BrdU ELISA, 450 nm) (MCF7 cells [12]; 24 hours, untreated 1.44): 0.89
OD value (BrdU ELISA, 450 nm) (MCF7 cells [12]; 48 hours, untreated 2.08): 0.75
OD value (BrdU ELISA, 450 nm) (MCF7 cells [12]; 72 hours, untreated 2.88): 0.66
mode of cell death (AO/PI morphology) (HL60 cells [13]): kill both cells in apoptotic manner
mode of cell death (AO/PI morphology) (MCF7 cells [14]): kill both cells in apoptotic manner

COc1cccc2c1C(=O)c1c(O)c3c(c(O)c1C2=O)C[C@@](O)(C(=O)CO)C[C@@H]3O[C@H]1C[C@H](N)[C@H](O)[C@H](C)O1 [Doxorubicin, reference compound]
IC50 [1]: 0.2 ± 0.03 µg/mL (≈ 0.368 µM)
IC50 [3]: 0.2 ± 0.06 µg/mL (≈ 0.368 µM)
IC50 ([10]; Homo sapiens, read-out: IC50): > 30 µg/mL
